{"source": "patent US9630991B2", "about": "“βsheet tapes ribbons in tissue engineering” (University of Leeds, priority 2002, dated 2017)", "key": {"[1]": {"assay": "Net charge of peptide at pH 7.5 in physiological solution", "assay_type": "physicochemical", "conditions": "per peptide, pH 7.5, physiological solution"}, "[2]": {"assay": "Fibril dimensions measured from TEM images", "assay_type": "physicochemical", "conditions": "for L, fibril contour length / h, twist pitch / l, fibril persistence length / wn, width of the fibril at its narrowest point / ww, width of the fibril at its widest point: physiological conditions, TEM", "method": "For, electron microscopy, samples were examined using a Phillips CM10 TEM at 80-100 kV accelerating voltage. Gels were diluted to a peptide concentration of 20 μM seconds before application to a glow-discharged, carbon-coated, copper grid followed by coating with uranyl acetate solution (4% w/v in water).\nThe dimensions of the fibrils formed by these peptides are given in Table 2, and TEM images from which these measurements were obtained are shown in FIGS. 6A-6D. These dimensions are—the length of a peptide fibril (contour length, L), the length of a peptide fibril before it curves (persistence length, l), the length of a full twist of a peptide fibril (twist pitch, h) the width of a fibril at its widest point (ww) and the width of the fibril at its narrowest point as it twists (wn)."}, "[3]": {"assay": "Self-assembly and gel formation in physiological solution / cell media", "assay_type": "physicochemical", "excerpt": "A large number (dozens) of systematically varied peptides (typically 7-30 residues long) have been studied for soluble polymer and gel formation in cell media. […] Only peptides with a approximate net +2 or −2 charge per peptide at physiological pH=7.5, were able to form soluble polymers and gel cell media (The amount of net charge necessary per peptide to keep its polymers soluble in cell media will vary depending on the overall surface properties and solubility of the peptide tapes it forms). […] These peptides retained a predominantly monomeric state and their solutions in cell media were fluids up to around 40 mg/ml peptide concentration.\nThe rationally designed peptide P11-8 (Tables 1A and 1C) was dissolved in 145 mM NaCl, pH˜7.5 aqueous solution (the ionic strength and pH values of the solution were similar to those present in cell culture medium) or it was added directly in cell culture medium.\nThe fibrils of P11-8 entwined partly with each other forming a three dimensional network and turned the peptide solution in cell media into a homogeneous self-supporting gel at peptide concentration higher than 15 mg/ml.\nThe gel could be temporarily broken by mechanical agitation. The time it took the gel to reform depended on the peptide concentration, ranging from seconds for a 35 mg/ml peptide gel, to hours for a 15 mg/ml peptide gel."}, "[4]": {"system": "tissue surrounding the injection site", "set-up": "species or system mice", "conditions": "mouse, in vivo", "excerpt": "Injection of P11-3 and P11-8 peptide solutions in cell media in mice has shown no effect of the presence of the peptide in the tissue surrounding the injection site as judged by histology after two and eight weeks following the peptide injection."}, "[5]": {"assay": "Self-assembly and gel formation in physiological solution / cell media", "assay_type": "physicochemical", "remark": "listed apart in the source"}, "L929 murine fibroblasts": {"system": "L929 murine fibroblasts", "assay": "Contact cytotoxicity testing", "assay_type": "cell-based", "conditions": "peptide gels in culture with L929 fibroblasts", "excerpt": "L929 murine fibroblasts growing in contact with the negative collagen control are shown in FIG. 5B and the positive control of cyanoacrylate adhesive is shown in FIG. 5A."}, "L929 fibroblast cells": {"system": "L929 fibroblast cells", "assay": "Cell density in peptide gels by ATPLite assay", "assay_type": "cell-based, murine", "excerpt": "After establishing that the peptides tested were not cytotoxic when placed in culture with L929 fibroblast cells, the next stage was assessing the suitability of the collagen peptide gels for use in supporting cell proliferation."}, "[6]": {"assay": "Persistence length of tapes, ribbons and fibrils in water", "assay_type": "physicochemical", "excerpt": "The tapes, ribbons, fibrils and fibres are increasingly more rigid structures."}, "[7]": {"assay": "Isotropic to nematic transition concentration", "assay_type": "physicochemical", "conditions": "ribbons of P11-1, fibrils of P11-2", "method": "We have also shown that above a certain peptide concentration cI/N (isotropic to nematic transition concentration) the semi-rigid ribbons, fibrils and fibres can align and thus transform their initially isotropic solution into a nematic liquid crystalline solution. The transition of the solution to the nematic liquid crystalline state happens at lower concentrations for more rigid polymers. For example, the nematic transition for solutions of ribbons of P11-1 peptide occurs at cI/N≈13 mM, whilst the nematic transition for solutions of the much more rigid fibrils of P11-2 peptide occurs at cI/N≈0.9 mM."}, "[8]": {"assay": "Geometrical sizes from X-ray diffraction data and molecular modelling", "assay_type": "physicochemical", "excerpt": "FIG. 2. Model of hierarchical self-assembly of beta-sheet forming peptides. Each peptide in beta-strand conformation, is depicted as a chiral rod-like unit (a). Local arrangements (c-f) and the corresponding global equilibrium conformations (c′-f′) for the hierarchical self-assembling structures formed in solutions of chiral molecules (a), which have complementary donor and acceptor groups, shown by arrows, via which they interact and align to form tapes (c). The black and the white surfaces of the rod (a) are reflected in the sides of the helical tape (c) which is chosen to curl towards the black side (c′). The outer sides of the twisted ribbon (d), of the fibril (e) and of the fibre (f) are all white. One of the fibrils in the fibre (f′) is drawn with darker shade for clarity. (e) & (f) show the front views of the edges of fibrils and fibres, respectively. Geometrical sizes (the numbers in parentheses show the values of the corresponding geometric sizes for P11-I and P11-II peptides, based on X-ray diffraction data and molecular modelling): inter-rod separation in a beta-sheet tape b2 (b2=0.47 nm); tape width, equal to the length of a rod, b1 (b1=4 nm); inter-ribbon distance in the fibril, α (α=1.6-2 nm for P11-I, and α=2-2.4 nm for P11-II)."}, "[9]": {"conditions": "145 mM NaCl, pH~7.5 or cell culture medium"}}, "note": "Where a SMILES comes first, the peptide text is derived from it. [ ]: non-standard residue; d: D form. Orn = NCCC[C@H](N)C(=O)O"}
{"molecule": "CC(=O)N[C@@H](CCC(N)=O)C(=O)N[C@@H](CCC(N)=O)C(=O)N[C@@H](CCCNC(=N)N)C(=O)N[C@@H](Cc1ccccc1)C(=O)N[C@@H](CCCN)C(=O)N[C@@H](Cc1c[nH]c2ccccc12)C(=O)N[C@@H](CCCN)C(=O)N[C@@H](Cc1ccccc1)C(=O)N[C@@H](CCC(=O)O)C(=O)N[C@@H](CCC(N)=O)C(=O)N[C@@H](CCC(N)=O)C(N)=O", "note": "[Peptide P11-8, CH3CO-Q-Q-R-F-O-W-O-F-E-Q-Q-NH2] (Ac-QQRF[Orn]W[Orn]FEQQ-NH2)", "values": [{"measurement": "Net charge at pH 7.5", "setting": "[1]", "result": "+2"}, {"measurement": "fibril full pitch", "setting": "[2]; [9]", "result": "200-300 nm"}, {"measurement": "fibril length", "setting": "[2]; [9]", "result": "several micrometers"}, {"measurement": "fibril narrow width", "setting": "[2]; [9]", "result": "4-5 nm"}, {"measurement": "fibril wide width", "setting": "[2]; [9]", "result": "12-15 nm"}, {"measurement": "L, fibril contour length", "setting": "[2]", "result": "1.2-6.3 μm"}, {"measurement": "h, twist pitch", "setting": "[2]", "result": "140-320 nm"}, {"measurement": "l, fibril persistence length", "setting": "[2]", "result": "0.8-2.5 μm"}, {"measurement": "wn, width of the fibril at its narrowest point", "setting": "[2]", "result": "4-11 nm"}, {"measurement": "ww, width of the fibril at its widest point", "setting": "[2]", "result": "13-19 nm"}, {"measurement": "time for gel to reform after mechanical agitation", "setting": "[3]; 15 mg/ml peptide gel", "result": "hours"}, {"measurement": "time for gel to reform after mechanical agitation", "setting": "[3]; 35 mg/ml peptide gel", "result": "seconds"}, {"measurement": "fibrils and gels after sterilisation using an autoclave", "setting": "[3]; cell media", "result": "reform after sterilisation using an autoclave"}, {"measurement": "peptide concentration for homogeneous self-supporting gel", "setting": "[3]; cell media", "result": "higher than 15 mg/ml"}, {"measurement": "gel stability", "setting": "[3]; room temperature, cell media", "result": "stable for at least several weeks"}, {"measurement": "effect on tissue surrounding the injection site by histology", "setting": "[4]", "result": "no effect"}, {"measurement": "conformation / solution state in water", "setting": "[5]; pH<7 in water", "result": "monomeric random coil conformation"}, {"measurement": "self-assembly in low ionic strength media", "setting": "[5]; pH=7.5, peptide concentrations up to 10 mg/ml", "result": "does not self-assemble"}]}
{"molecule": "CC(=O)N[C@@H](CC(N)=O)C(=O)N[C@@H](CC(N)=O)C(=O)N[C@@H](CCCNC(=N)N)C(=O)N[C@@H](Cc1ccccc1)C(=O)N[C@@H](CCC(=O)O)C(=O)N[C@@H](Cc1c[nH]c2ccccc12)C(=O)N[C@@H](CCC(=O)O)C(=O)N[C@@H](Cc1ccccc1)C(=O)N[C@@H](CCC(=O)O)C(=O)N[C@@H](CC(N)=O)C(=O)N[C@@H](CC(N)=O)C(N)=O", "note": "[Peptide P11-15, CH3CO-N-N-R-F-E-W-E-F-E-N-N-NH2] (Ac-NNRFEWEFENN-NH2)", "values": [{"measurement": "Net charge at pH 7.5", "setting": "[1]", "result": "−2"}, {"measurement": "L, fibril contour length", "setting": "[2]", "result": "1.3-4 μm"}, {"measurement": "h, twist pitch", "setting": "[2]", "result": "118-220 nm"}, {"measurement": "l, fibril persistence length", "setting": "[2]", "result": "0.3-1.2 μm"}, {"measurement": "wn, width of the fibril at its narrowest point", "setting": "[2]", "result": "5-7 nm"}, {"measurement": "ww, width of the fibril at its widest point", "setting": "[2]", "result": "7-10 nm"}, {"measurement": "contact cytotoxicity", "setting": "L929 murine fibroblasts", "result": "growing in contact with and onto the peptide gel matrix"}, {"measurement": "support of cell growth", "setting": "L929 fibroblast cells; L929 cells in peptide gels", "result": "moderately successful in supporting cell growth"}, {"measurement": "macroscopic appearance of gel", "setting": "L929 fibroblast cells; at end of cell culture experiment", "result": "little sign of macroscopic degradation"}]}
{"molecule": "CC(=O)N[C@@H](CC(N)=O)C(=O)N[C@@H](CC(N)=O)C(=O)N[C@@H](CCCNC(=N)N)C(=O)N[C@@H](Cc1ccccc1)C(=O)N[C@@H](CCCN)C(=O)N[C@@H](Cc1c[nH]c2ccccc12)C(=O)N[C@@H](CCCN)C(=O)N[C@@H](Cc1ccccc1)C(=O)N[C@@H](CCC(=O)O)C(=O)N[C@@H](CC(N)=O)C(=O)N[C@@H](CC(N)=O)C(N)=O", "note": "[Peptide P11-16, CH3CO-N-N-R-F-O-W-O-F-E-N-N-NH2] (Ac-NNRF[Orn]W[Orn]FENN-NH2)", "values": [{"measurement": "Net charge at pH 7.5", "setting": "[1]", "result": "+2"}, {"measurement": "L, fibril contour length", "setting": "[2]", "result": "1.2-3.9 μm"}, {"measurement": "h, twist pitch", "setting": "[2]", "result": "109-220 nm"}, {"measurement": "l, fibril persistence length", "setting": "[2]", "result": "0.5-1.6 μm"}, {"measurement": "wn, width of the fibril at its narrowest point", "setting": "[2]", "result": "5-10 nm"}, {"measurement": "ww, width of the fibril at its widest point", "setting": "[2]", "result": "11-20 nm"}, {"measurement": "contact cytotoxicity", "setting": "L929 murine fibroblasts", "result": "growing in contact with and onto the peptide gel matrix"}]}
{"molecule": "QQR^+FQWQFE^-QQ (QQRFQWQFEQQ; self assembling peptide P11-2)", "values": [{"measurement": "Net charge at pH 7.5", "setting": "[1]", "result": 0}, {"measurement": "persistence length of fibrils", "setting": "[6]", "result": "20-70 μm"}, {"measurement": "persistence length of ribbons", "setting": "[6]", "result": 1, "unit": "μm"}, {"measurement": "cI/N, isotropic to nematic transition concentration", "setting": "[7]", "result": "≈ 0.9 mM"}, {"measurement": "inter-ribbon distance in the fibril, α", "setting": "[8]", "result": "2-2.4 nm"}, {"measurement": "inter-rod separation in a beta-sheet tape b2", "setting": "[8]", "result": 0.47, "unit": "nm"}, {"measurement": "tape width b1", "setting": "[8]", "result": 4, "unit": "nm"}]}
